# Measured values published in the supplement of paper PMC12463676, “Small-molecule dissolution of stress granules by redox modulation benefits ALS models” (Nature Chemical Biology, 2025).
# Compound: NC(=O)CCCCC1CCSS1 [lipoamide]
# Test: thermal stability z-score vs DMSO; higher = more thermally stabilized by treatment
# Details: HeLa; lipoamide concentration 100 µM; arsenate co-treatment: 1 mM arsenate 1 h
# Procedure: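 Cellular thermal proteome profiling in HeLa cells. Cells were treated with 100 µM lipoamide for 1 h, with or without 1 mM arsenate for a further 1 h, then heated to ten temperatures (37-66.3 °C), and soluble protein was quantified by TMT mass spectrometry relative to 0.1% DMSO controls. The thermal stability score (sum of log2 fold changes minus the abundance score) was transformed to a z-score; mean of n = 3 experiments.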
# 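Also: each temperature applied for 3 min, abundance score taken as mean log2 fold change at the two lowest temperatures, z-score obtained by mean subtraction and division by SD.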
# UniProt Q6IBW4, sequence (Q6IBW4 whole entry): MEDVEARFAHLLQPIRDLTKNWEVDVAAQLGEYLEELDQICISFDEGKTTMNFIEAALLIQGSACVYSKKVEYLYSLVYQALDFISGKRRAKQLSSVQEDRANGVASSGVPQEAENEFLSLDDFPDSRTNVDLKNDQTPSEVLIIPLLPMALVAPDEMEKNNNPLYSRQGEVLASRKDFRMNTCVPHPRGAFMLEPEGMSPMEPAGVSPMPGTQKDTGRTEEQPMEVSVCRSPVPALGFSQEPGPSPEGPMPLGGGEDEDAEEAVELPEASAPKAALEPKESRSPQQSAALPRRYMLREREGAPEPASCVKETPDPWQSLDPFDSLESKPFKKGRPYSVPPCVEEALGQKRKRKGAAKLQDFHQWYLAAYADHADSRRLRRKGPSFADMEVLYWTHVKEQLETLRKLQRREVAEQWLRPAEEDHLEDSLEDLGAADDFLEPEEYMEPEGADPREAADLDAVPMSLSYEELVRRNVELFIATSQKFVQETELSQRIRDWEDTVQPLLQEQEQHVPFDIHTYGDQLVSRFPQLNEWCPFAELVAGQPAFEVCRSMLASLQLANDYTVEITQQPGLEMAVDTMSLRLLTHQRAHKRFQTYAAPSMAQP
# UniProt P08581, sequence (P08581 whole entry): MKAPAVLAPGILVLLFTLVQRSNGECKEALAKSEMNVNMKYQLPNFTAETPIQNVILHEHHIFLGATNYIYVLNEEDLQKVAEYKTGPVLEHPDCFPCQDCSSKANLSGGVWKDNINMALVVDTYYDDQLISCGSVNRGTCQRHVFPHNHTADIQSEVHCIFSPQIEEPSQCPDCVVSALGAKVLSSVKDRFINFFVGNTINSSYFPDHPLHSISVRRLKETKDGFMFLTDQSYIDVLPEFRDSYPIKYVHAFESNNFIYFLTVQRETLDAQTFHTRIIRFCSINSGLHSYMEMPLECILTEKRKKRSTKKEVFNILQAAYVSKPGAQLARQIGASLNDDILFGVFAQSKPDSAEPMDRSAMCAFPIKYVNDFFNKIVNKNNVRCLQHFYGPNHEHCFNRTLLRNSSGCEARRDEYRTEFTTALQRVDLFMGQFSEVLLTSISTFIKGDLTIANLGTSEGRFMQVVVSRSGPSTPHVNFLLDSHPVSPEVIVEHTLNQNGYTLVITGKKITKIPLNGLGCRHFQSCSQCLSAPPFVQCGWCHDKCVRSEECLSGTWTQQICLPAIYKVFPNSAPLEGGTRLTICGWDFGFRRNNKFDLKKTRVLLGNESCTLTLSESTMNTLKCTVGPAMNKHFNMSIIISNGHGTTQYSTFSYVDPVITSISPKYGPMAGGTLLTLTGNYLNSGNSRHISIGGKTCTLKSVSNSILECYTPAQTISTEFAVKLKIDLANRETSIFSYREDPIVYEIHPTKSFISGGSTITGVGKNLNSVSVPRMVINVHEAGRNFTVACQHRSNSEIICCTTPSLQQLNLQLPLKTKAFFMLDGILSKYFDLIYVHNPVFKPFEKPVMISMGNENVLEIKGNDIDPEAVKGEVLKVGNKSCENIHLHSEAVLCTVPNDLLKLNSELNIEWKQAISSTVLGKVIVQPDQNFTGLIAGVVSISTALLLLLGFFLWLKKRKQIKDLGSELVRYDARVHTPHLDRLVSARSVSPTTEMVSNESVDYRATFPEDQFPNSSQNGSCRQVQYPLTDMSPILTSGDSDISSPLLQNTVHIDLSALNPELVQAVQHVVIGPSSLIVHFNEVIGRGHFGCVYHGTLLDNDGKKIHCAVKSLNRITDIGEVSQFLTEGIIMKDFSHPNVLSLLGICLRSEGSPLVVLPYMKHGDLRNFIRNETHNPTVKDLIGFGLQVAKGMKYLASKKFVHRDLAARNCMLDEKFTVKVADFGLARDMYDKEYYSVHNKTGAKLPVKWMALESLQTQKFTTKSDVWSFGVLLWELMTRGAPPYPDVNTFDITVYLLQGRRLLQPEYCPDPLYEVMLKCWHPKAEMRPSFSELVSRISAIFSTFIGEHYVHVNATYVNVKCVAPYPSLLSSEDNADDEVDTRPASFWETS
# UniProt Q5VW32, sequence (Q5VW32 whole entry): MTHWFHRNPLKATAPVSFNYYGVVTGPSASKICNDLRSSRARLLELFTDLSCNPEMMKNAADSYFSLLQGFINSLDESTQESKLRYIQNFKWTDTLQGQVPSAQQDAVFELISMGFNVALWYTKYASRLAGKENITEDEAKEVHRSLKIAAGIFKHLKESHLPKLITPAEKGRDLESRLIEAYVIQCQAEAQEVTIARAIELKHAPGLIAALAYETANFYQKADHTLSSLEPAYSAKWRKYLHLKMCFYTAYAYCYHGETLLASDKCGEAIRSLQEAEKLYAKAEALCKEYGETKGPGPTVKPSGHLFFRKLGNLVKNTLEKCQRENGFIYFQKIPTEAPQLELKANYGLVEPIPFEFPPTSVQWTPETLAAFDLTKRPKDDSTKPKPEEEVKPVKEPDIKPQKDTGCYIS
# UniProt Q9P265, sequence (Q9P265 whole entry): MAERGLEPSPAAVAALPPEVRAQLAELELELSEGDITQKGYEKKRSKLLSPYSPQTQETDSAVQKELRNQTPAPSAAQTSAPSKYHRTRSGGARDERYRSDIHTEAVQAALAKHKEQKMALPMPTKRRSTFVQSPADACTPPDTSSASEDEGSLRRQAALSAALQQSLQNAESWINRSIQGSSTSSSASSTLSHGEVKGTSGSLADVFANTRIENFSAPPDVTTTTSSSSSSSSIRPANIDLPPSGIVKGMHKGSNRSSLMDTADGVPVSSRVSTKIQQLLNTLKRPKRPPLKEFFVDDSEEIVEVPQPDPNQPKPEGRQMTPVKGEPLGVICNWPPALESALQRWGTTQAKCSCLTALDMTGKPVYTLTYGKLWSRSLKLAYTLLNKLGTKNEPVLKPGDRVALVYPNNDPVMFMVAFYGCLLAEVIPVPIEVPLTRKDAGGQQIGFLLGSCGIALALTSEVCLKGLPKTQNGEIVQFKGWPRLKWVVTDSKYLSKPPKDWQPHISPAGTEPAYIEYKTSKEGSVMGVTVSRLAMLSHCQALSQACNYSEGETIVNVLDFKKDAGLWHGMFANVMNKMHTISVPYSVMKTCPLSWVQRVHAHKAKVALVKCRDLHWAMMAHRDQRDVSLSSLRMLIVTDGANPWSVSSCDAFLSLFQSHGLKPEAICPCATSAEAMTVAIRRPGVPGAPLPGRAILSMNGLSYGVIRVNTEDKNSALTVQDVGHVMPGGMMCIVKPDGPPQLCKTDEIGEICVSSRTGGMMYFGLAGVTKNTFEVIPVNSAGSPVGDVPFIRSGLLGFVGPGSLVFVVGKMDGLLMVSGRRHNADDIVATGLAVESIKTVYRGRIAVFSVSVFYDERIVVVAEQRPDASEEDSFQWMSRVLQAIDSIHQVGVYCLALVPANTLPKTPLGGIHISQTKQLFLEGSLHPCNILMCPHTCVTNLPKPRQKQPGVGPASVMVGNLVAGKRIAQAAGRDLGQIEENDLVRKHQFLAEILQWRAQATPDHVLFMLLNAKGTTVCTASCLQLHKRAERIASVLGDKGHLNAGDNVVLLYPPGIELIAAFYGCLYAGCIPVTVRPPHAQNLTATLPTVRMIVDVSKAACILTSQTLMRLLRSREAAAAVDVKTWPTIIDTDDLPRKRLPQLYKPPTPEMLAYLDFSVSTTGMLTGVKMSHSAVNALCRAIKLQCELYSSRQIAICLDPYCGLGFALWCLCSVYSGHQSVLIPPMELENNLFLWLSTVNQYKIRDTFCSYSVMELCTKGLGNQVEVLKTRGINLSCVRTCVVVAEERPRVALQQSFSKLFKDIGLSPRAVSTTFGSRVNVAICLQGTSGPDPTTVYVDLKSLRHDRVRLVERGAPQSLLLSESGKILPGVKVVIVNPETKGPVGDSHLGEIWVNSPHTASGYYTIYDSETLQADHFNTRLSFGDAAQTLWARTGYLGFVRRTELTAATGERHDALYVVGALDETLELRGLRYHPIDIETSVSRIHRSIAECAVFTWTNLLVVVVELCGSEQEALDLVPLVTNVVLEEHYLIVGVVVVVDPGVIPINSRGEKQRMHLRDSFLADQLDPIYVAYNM
# UniProt P17813, sequence (P17813 whole entry): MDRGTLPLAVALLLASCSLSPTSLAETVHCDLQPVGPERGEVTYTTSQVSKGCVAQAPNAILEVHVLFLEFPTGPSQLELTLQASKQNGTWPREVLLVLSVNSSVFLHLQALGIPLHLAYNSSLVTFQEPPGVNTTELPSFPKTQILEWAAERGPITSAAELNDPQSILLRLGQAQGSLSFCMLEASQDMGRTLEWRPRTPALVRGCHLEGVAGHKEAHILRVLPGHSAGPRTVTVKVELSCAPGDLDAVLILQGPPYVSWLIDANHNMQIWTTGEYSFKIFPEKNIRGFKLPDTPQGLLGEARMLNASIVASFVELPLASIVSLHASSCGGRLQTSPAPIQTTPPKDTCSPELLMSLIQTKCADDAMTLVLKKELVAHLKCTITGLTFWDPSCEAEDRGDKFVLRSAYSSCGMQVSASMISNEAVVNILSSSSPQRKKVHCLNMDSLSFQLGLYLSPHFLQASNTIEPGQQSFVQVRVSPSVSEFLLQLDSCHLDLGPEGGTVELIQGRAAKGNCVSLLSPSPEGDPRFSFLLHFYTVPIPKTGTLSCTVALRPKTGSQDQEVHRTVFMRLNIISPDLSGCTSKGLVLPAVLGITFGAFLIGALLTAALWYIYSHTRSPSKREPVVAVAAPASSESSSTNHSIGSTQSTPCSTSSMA
# UniProt P11441, sequence (P11441 whole entry): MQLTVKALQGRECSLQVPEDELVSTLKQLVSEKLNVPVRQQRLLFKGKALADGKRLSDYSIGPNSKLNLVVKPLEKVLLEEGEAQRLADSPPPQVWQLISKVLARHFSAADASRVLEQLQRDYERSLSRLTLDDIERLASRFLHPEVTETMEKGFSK
# UniProt Q9Y508, sequence (Q9Y508 whole entry): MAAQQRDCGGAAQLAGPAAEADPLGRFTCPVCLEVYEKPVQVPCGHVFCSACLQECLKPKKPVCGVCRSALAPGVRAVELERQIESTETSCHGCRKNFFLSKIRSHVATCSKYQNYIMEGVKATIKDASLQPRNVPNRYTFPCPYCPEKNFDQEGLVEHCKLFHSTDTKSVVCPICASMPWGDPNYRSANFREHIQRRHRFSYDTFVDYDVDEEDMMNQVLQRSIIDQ
row,Target,thermal stability z-score
1,TIMMDC1 (UniProt Q9NPL8),0.185
2,CENPF (UniProt P49454),0.439
3,ZBTB33 (UniProt Q86T24),-0.0938
4,GPN2 (UniProt Q9H9Y4),0.0332
5,EXTL2 (UniProt Q9UBQ6),1.05
6,MCU (UniProt Q8NE86),-0.0937
7,ZKSCAN1 (UniProt P17029),-0.0617
8,HAUS6 (UniProt Q7Z4H7),0.0315
9,EBAG9 (UniProt O00559),1.73
10,RANBP2 (UniProt P49792),-0.733
11,EIF4B (UniProt P23588),0.102
12,SLC38A1 (UniProt Q9H2H9),0.457
13,UBL4A (UniProt P11441),0.683
14,CPT1A (UniProt P50416),-0.189
15,THOC6 (UniProt Q86W42),0.337
16,KTI12 (UniProt Q96EK9),0.014
17,RIOK1 (UniProt Q9BRS2),-0.529
18,ASAP1 (UniProt Q9ULH1),0.0666
19,SRPK2 (UniProt P78362),0.467
20,MRPS9 (UniProt P82933),0.316
21,RPL21 (UniProt P46778),0.61
22,MRPS23 (UniProt Q9Y3D9),-0.268
23,PTPN1 (UniProt P18031),-1.02
24,CFDP1 (UniProt Q9UEE9),0.254
25,RBBP4 (UniProt Q09028),0.868
26,PTGR1 (UniProt Q14914),1.49
27,DCTN6 (UniProt O00399),-0.771
28,ASCC1 (UniProt Q8N9N2),-1.01

row,Target,thermal stability z-score
1,PSMD12 (UniProt O00232),-0.0164
2,DAP3 (UniProt P51398),-0.597
3,FLNA (UniProt P21333),0.22
4,NCAPH2 (UniProt Q6IBW4),-0.0183
5,FKBP3 (UniProt Q00688),0.676
6,ENG (UniProt P17813),-0.721
7,NABP2 (UniProt Q9BQ15),-0.423
8,UniProt F8W031,-3.73
9,CCDC85C (UniProt A6NKD9),0.0231
10,CAPRIN1 (UniProt Q14444),0.381
11,MAD2L2 (UniProt Q9UI95),-0.137
12,HIST1H1C (UniProt P16403),0.707
13,BCR (UniProt P11274),-0.0665
14,RNF114 (UniProt Q9Y508),-0.534
15,DIP2B (UniProt Q9P265),0.206
16,MET (UniProt P08581),-0.338
17,BROX (UniProt Q5VW32),1.03
18,TUBA4A (UniProt P68366),-0.0177
19,VPS33B (UniProt Q9H267),-0.333
20,UBR3 (UniProt Q6ZT12),0.0839
21,PLGRKT (UniProt Q9HBL7),0.684
22,NAV2 (UniProt Q8IVL1),0.0134
23,SH3KBP1 (UniProt Q96B97),0.46
24,RAD17 (UniProt O75943),-0.324
25,ACAT1 (UniProt P24752),0.399
26,MARC2 (UniProt Q969Z3),0.235
27,DDX39B (UniProt Q13838),0.451

# Same assay, conditions: HeLa; lipoamide concentration 100 µM; arsenate co-treatment: none
row,Target,thermal stability z-score
1,TIMMDC1 (UniProt Q9NPL8),-0.271
2,CENPF (UniProt P49454),-0.0287
3,ZBTB33 (UniProt Q86T24),-0.0683
4,GPN2 (UniProt Q9H9Y4),0.0213
5,EXTL2 (UniProt Q9UBQ6),0.893
6,MCU (UniProt Q8NE86),0.21
7,ZKSCAN1 (UniProt P17029),0.0599
8,HAUS6 (UniProt Q7Z4H7),0.263
9,EBAG9 (UniProt O00559),1.25
10,RANBP2 (UniProt P49792),-0.425
11,EIF4B (UniProt P23588),0.429
12,SLC38A1 (UniProt Q9H2H9),0.549
13,UBL4A (UniProt P11441),1.2
14,CPT1A (UniProt P50416),-0.268
15,THOC6 (UniProt Q86W42),0.402
16,KTI12 (UniProt Q96EK9),-0.222
17,RIOK1 (UniProt Q9BRS2),-0.513
18,ASAP1 (UniProt Q9ULH1),-0.0222
19,SRPK2 (UniProt P78362),-0.365
20,MRPS9 (UniProt P82933),0.203
21,RPL21 (UniProt P46778),0.308
22,MRPS23 (UniProt Q9Y3D9),0.352
23,PTPN1 (UniProt P18031),-0.578
24,CFDP1 (UniProt Q9UEE9),0.185
25,RBBP4 (UniProt Q09028),0.934
26,PTGR1 (UniProt Q14914),1.67
27,DCTN6 (UniProt O00399),-0.761
28,ASCC1 (UniProt Q8N9N2),-0.215

row,Target,thermal stability z-score
1,PSMD12 (UniProt O00232),0.0811
2,DAP3 (UniProt P51398),-0.135
3,FLNA (UniProt P21333),0.544
4,NCAPH2 (UniProt Q6IBW4),0.00929
5,FKBP3 (UniProt Q00688),0.552
6,ENG (UniProt P17813),-0.506
7,NABP2 (UniProt Q9BQ15),-0.174
8,UniProt F8W031,-2.58
9,CCDC85C (UniProt A6NKD9),0.186
10,CAPRIN1 (UniProt Q14444),0.754
11,MAD2L2 (UniProt Q9UI95),0.037
12,HIST1H1C (UniProt P16403),0.018
13,BCR (UniProt P11274),-0.0479
14,RNF114 (UniProt Q9Y508),-0.407
15,DIP2B (UniProt Q9P265),0.147
16,MET (UniProt P08581),-0.235
17,BROX (UniProt Q5VW32),1.02
18,TUBA4A (UniProt P68366),-0.502
19,VPS33B (UniProt Q9H267),0.0129
20,UBR3 (UniProt Q6ZT12),0.139
21,PLGRKT (UniProt Q9HBL7),0.147
22,NAV2 (UniProt Q8IVL1),-0.0355
23,SH3KBP1 (UniProt Q96B97),0.0841
24,RAD17 (UniProt O75943),-0.278
25,ACAT1 (UniProt P24752),1.07
26,MARC2 (UniProt Q969Z3),0.311
27,DDX39B (UniProt Q13838),0.103

# Compound: O=[As]([O-])(O)O.[K+] [potassium arsenate]
# Test: as above
# Details: HeLa; arsenate concentration 1 mM
# Procedure: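 Cellular thermal proteome profiling in HeLa cells treated with 1 mM arsenate for 1 h (DMSO pretreatment), heated to ten temperatures (37-66.3 °C). Soluble protein was quantified by TMT mass spectrometry relative to DMSO controls; the thermal stability score was transformed to a z-score; mean of n = 3 experiments.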
row,Target,thermal stability z-score
1,TIMMDC1 (UniProt Q9NPL8),0.538
2,CENPF (UniProt P49454),1.73
3,ZBTB33 (UniProt Q86T24),-0.107
4,GPN2 (UniProt Q9H9Y4),-0.222
5,EXTL2 (UniProt Q9UBQ6),0.453
6,MCU (UniProt Q8NE86),0.57
7,ZKSCAN1 (UniProt P17029),0.128
8,HAUS6 (UniProt Q7Z4H7),0.528
9,EBAG9 (UniProt O00559),0.749
10,RANBP2 (UniProt P49792),1.49
11,EIF4B (UniProt P23588),0.032
12,SLC38A1 (UniProt Q9H2H9),1.25
13,UBL4A (UniProt P11441),1.11
14,CPT1A (UniProt P50416),-0.161
15,THOC6 (UniProt Q86W42),0.429
16,KTI12 (UniProt Q96EK9),-0.224
17,RIOK1 (UniProt Q9BRS2),-1.27
18,ASAP1 (UniProt Q9ULH1),-0.0654
19,SRPK2 (UniProt P78362),0.168
20,MRPS9 (UniProt P82933),0.195
21,RPL21 (UniProt P46778),-1.03
22,MRPS23 (UniProt Q9Y3D9),0.342
23,PTPN1 (UniProt P18031),0.228
24,CFDP1 (UniProt Q9UEE9),-0.21
25,RBBP4 (UniProt Q09028),-0.0159
26,PTGR1 (UniProt Q14914),0.672
27,DCTN6 (UniProt O00399),-0.333
28,ASCC1 (UniProt Q8N9N2),-0.708

row,Target,thermal stability z-score
1,PSMD12 (UniProt O00232),-0.133
2,DAP3 (UniProt P51398),0.132
3,FLNA (UniProt P21333),-0.4
4,NCAPH2 (UniProt Q6IBW4),-0.299
5,FKBP3 (UniProt Q00688),-0.406
6,ENG (UniProt P17813),0.478
7,NABP2 (UniProt Q9BQ15),-0.112
8,UniProt F8W031,0.325
9,CCDC85C (UniProt A6NKD9),-0.0463
10,CAPRIN1 (UniProt Q14444),0.295
11,MAD2L2 (UniProt Q9UI95),-0.211
12,HIST1H1C (UniProt P16403),0.0976
13,BCR (UniProt P11274),0.0296
14,RNF114 (UniProt Q9Y508),-1.6
15,DIP2B (UniProt Q9P265),-0.222
16,MET (UniProt P08581),0.073
17,BROX (UniProt Q5VW32),-0.0457
18,TUBA4A (UniProt P68366),-0.681
19,VPS33B (UniProt Q9H267),0.205
20,UBR3 (UniProt Q6ZT12),-0.007
21,PLGRKT (UniProt Q9HBL7),0.783
22,NAV2 (UniProt Q8IVL1),-0.055
23,SH3KBP1 (UniProt Q96B97),-0.523
24,RAD17 (UniProt O75943),-0.848
25,ACAT1 (UniProt P24752),0.878
26,MARC2 (UniProt Q969Z3),0.168
27,DDX39B (UniProt Q13838),0.941
